According to US11077090B2, “Compounds and compositions and uses thereof” (Sunovion Pharmaceuticals Inc., priority 2016, dated 2021):

What follows are compounds tested on compound-treated mice (assay: Neuropharmacological assay (SmartCube): behavioral activity signature and minimal effective dose). Conditions: Mus musculus, ip, MED = dose having 50% or more total activity, read-out: Potency: minimal effective dose (MED), binned.
Format: in vivo
How it was run: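 Video-recorded behavior is compared algorithmically against a reference-compound database, yielding class probabilities (best dose reported). Compounds given i.p. in NMP/PEG/propylene glycol 15 min pre-test at 3 doses; potency as MED, the dose (mpk, range usually 0.3–30) reaching ≥50% total activity.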
`Cc1ccc(Cl)c2c1[C@H](N)COC2` (single isomer, unassigned) [Example 175] gave a minimal effective dose of under 3 mg/kg. Compound `Cc1ccc(Cl)c2c1[C@@H](N)COC2` (single isomer, unassigned) [Example 176] has a minimal effective dose of 3 to 10 mg/kg. In the case of `CC[C@H]1OCc2ccc(C)cc2[C@@H]1N` (single isomer, unassigned) [Example 177], the minimal effective dose is reported as under 3 mg/kg. Compound `CC[C@@H]1OCc2ccc(C)cc2[C@H]1N` (single isomer, unassigned) [Example 178] has a minimal effective dose of 10 to 30 mg/kg. `CC[C@@H]1OCc2ccc(C)cc2[C@@H]1N` (single isomer, unassigned) [Example 179] gave a minimal effective dose of under 3 mg/kg. With `CC[C@H]1OCc2ccc(C)cc2[C@H]1N` (single isomer, unassigned) [Example 180] the minimal effective dose was 3 to 10 mg/kg. In the case of `CC[C@@H]1OCc2ccccc2[C@@H]1N` (single isomer, unassigned) [Example 191], the minimal effective dose is reported as under 3 mg/kg. `CC[C@H]1OCc2ccccc2[C@H]1N` (single isomer, unassigned) [Example 192] showed a minimal effective dose of under 3 mg/kg. In the case of `CC[C@H]1OCc2ccccc2[C@@H]1N` (single isomer, unassigned) [Example 193], the minimal effective dose is reported as 3 to 10 mg/kg. For `CC[C@@H]1OCc2ccccc2[C@@H]1N.Cl` (single isomer, unassigned) [Example 198], the minimal effective dose was under 3 mg/kg. For `CC[C@H]1OCc2ccccc2[C@@H]1N.Cl` (single isomer, unassigned) [Example 199], the minimal effective dose was under 3 mg/kg. `CC[C@H]1OCc2cccc(Cl)c2[C@@H]1N.Cl` (single isomer, unassigned) [Example 209] was tested, and the minimal effective dose was 3 to 10 mg/kg.

Same assay, conditions: i.p. 15 min before test, most efficacious dose(s)
For `Cc1ccc(Cl)c2c1[C@H](N)COC2` (single isomer, unassigned) [Example 175], the “AD: ADHD (probability of activity signature)” value (shortened to “AD: ADHD”) was “+ (LOQ ≤ + <5%)”, the “AG: analgesic (probability of activity signature)” value (“AG: analgesic” for short) was “++ (5% ≤ ++ <25%)” and the “AX: anxiolytic (probability of activity signature)” value (“AX: anxiolytic” for short) was “++ (5% ≤ ++ <25%)”. For the same compound, the “CE: cognitive enhancer (probability of activity signature)” value (from here on “CE: cognitive enhancer”) was “++ (5% ≤ ++ <25%)”, the “DP: anti-depressant (probability of activity signature)” value (from here on “DP: anti-depressant”) was “++ (5% ≤ ++ <25%)” and the “MS: mood stabilizer (probability of activity signature)” value (shortened to “MS: mood stabilizer”) was “+ (LOQ ≤ + <5%)”. The “PS: anti-psychotic (probability of activity signature)” value (“PS: anti-psychotic” below) was “++ (5% ≤ ++ <25%)”, the “SD: sedative hypnotic (probability of activity signature)” value (“SD: sedative hypnotic” for short) was “+ (LOQ ≤ + <5%)” and the “UN: uncharacterized CNS activity (probability of activity signature)” value (“UN: uncharacterized CNS activity” for short) was “++++ (50% ≤ ++++)”. `Cc1ccc(Cl)c2c1[C@@H](N)COC2` (single isomer, unassigned) [Example 176] was tested, and the “AD: ADHD” value was “+ (LOQ ≤ + <5%)”, the “AG: analgesic” value was “+ (LOQ ≤ + <5%)” and the “AX: anxiolytic” value was “++ (5% ≤ ++ <25%)”. For the same compound, the “CE: cognitive enhancer” value was “++ (5% ≤ ++ <25%)”, the “DP: anti-depressant” value was “++ (5% ≤ ++ <25%)” and the “MS: mood stabilizer” value was “+ (LOQ ≤ + <5%)”. For the same compound, the “PS: anti-psychotic” value was “++ (5% ≤ ++ <25%)”, the “SD: sedative hypnotic” value was “+ (LOQ ≤ + <5%)” and the “UN: uncharacterized CNS activity” value was “++++ (50% ≤ ++++)”. In the case of `CC[C@H]1OCc2ccc(C)cc2[C@@H]1N` (single isomer, unassigned) [Example 177], the “AD: ADHD” value is reported as “+ (LOQ ≤ + <5%)”, the “AG: analgesic” value is reported as “++ (5% ≤ ++ <25%)” and the “AX: anxiolytic” value is reported as “++++ (50% ≤ ++++)”. For the same compound, the “CE: cognitive enhancer” value was “++ (5% ≤ ++ <25%)”, the “DP: anti-depressant” value was “+ (LOQ ≤ + <5%)” and the “MS: mood stabilizer” value was “+ (LOQ ≤ + <5%)”. The “PS: anti-psychotic” value was “++ (5% ≤ ++ <25%)”, the “SD: sedative hypnotic” value was “+ (LOQ ≤ + <5%)” and the “UN: uncharacterized CNS activity” value was “++++ (50% ≤ ++++)”. With `CC[C@@H]1OCc2ccc(C)cc2[C@H]1N` (single isomer, unassigned) [Example 178] the “AD: ADHD” value was “+ (LOQ ≤ + <5%)”, the “AG: analgesic” value was “++ (5% ≤ ++ <25%)” and the “AX: anxiolytic” value was “++ (5% ≤ ++ <25%)”. For the same compound, the “CE: cognitive enhancer” value was “+ (LOQ ≤ + <5%)”, the “DP: anti-depressant” value was “++ (5% ≤ ++ <25%)” and the “MS: mood stabilizer” value was “+ (LOQ ≤ + <5%)”. The “PS: anti-psychotic” value was “++ (5% ≤ ++ <25%)”, the “SD: sedative hypnotic” value was “++ (5% ≤ ++ <25%)” and the “UN: uncharacterized CNS activity” value was “+++ (25% ≤ +++ <50%)”. `CC[C@@H]1OCc2ccc(C)cc2[C@@H]1N` (single isomer, unassigned) [Example 179] was tested, and the “AD: ADHD” value was “+ (LOQ ≤ + <5%)”, the “AG: analgesic” value was “+ (LOQ ≤ + <5%)” and the “AX: anxiolytic” value was “++ (5% ≤ ++ <25%)”. The “CE: cognitive enhancer” value was “++ (5% ≤ ++ <25%)”, the “DP: anti-depressant” value was “+++ (25% ≤ +++ <50%)” and the “MS: mood stabilizer” value was “+ (LOQ ≤ + <5%)”. For the same compound, the “PS: anti-psychotic” value was “++ (5% ≤ ++ <25%)”, the “SD: sedative hypnotic” value was “+ (LOQ ≤ + <5%)” and the “UN: uncharacterized CNS activity” value was “++++ (50% ≤ ++++)”. `CC[C@H]1OCc2ccc(C)cc2[C@H]1N` (single isomer, unassigned) [Example 180] was tested, and the “AD: ADHD” value was “+ (LOQ ≤ + <5%)”, the “AG: analgesic” value was “++ (5% ≤ ++ <25%)” and the “AX: anxiolytic” value was “++ (5% ≤ ++ <25%)”. For the same compound, the “CE: cognitive enhancer” value was “++ (5% ≤ ++ <25%)”, the “DP: anti-depressant” value was “++ (5% ≤ ++ <25%)” and the “MS: mood stabilizer” value was “+ (LOQ ≤ + <5%)”. For the same compound, the “PS: anti-psychotic” value was “++ (5% ≤ ++ <25%)”, the “SD: sedative hypnotic” value was “+ (LOQ ≤ + <5%)” and the “UN: uncharacterized CNS activity” value was “++++ (50% ≤ ++++)”. `CC[C@@H]1OCc2ccccc2[C@@H]1N` (single isomer, unassigned) [Example 191] was tested, and the “AD: ADHD” value was “+ (LOQ ≤ + <5%)”, the “AG: analgesic” value was “++ (5% ≤ ++ <25%)” and the “AX: anxiolytic” value was “++ (5% ≤ ++ <25%)”. For the same compound, the “CE: cognitive enhancer” value was “++ (5% ≤ ++ <25%)”, the “DP: anti-depressant” value was “++ (5% ≤ ++ <25%)” and the “MS: mood stabilizer” value was “+ (LOQ ≤ + <5%)”. For the same compound, the “PS: anti-psychotic” value was “++ (5% ≤ ++ <25%)”, the “SD: sedative hypnotic” value was “++ (5% ≤ ++ <25%)” and the “UN: uncharacterized CNS activity” value was “++++ (50% ≤ ++++)”. `CC[C@H]1OCc2ccccc2[C@H]1N` (single isomer, unassigned) [Example 192] was tested, and the “AD: ADHD” value was “+ (LOQ ≤ + <5%)”, the “AG: analgesic” value was “+ (LOQ ≤ + <5%)” and the “AX: anxiolytic” value was “++ (5% ≤ ++ <25%)”. The “CE: cognitive enhancer” value was “++ (5% ≤ ++ <25%)”, the “DP: anti-depressant” value was “+ (LOQ ≤ + <5%)” and the “MS: mood stabilizer” value was “+ (LOQ ≤ + <5%)”. For the same compound, the “PS: anti-psychotic” value was “++ (5% ≤ ++ <25%)”, the “SD: sedative hypnotic” value was “++ (5% ≤ ++ <25%)” and the “UN: uncharacterized CNS activity” value was “++++ (50% ≤ ++++)”. With `CC[C@H]1OCc2ccccc2[C@@H]1N` (single isomer, unassigned) [Example 193] the “AD: ADHD” value was “+ (LOQ ≤ + <5%)”, the “AG: analgesic” value was “++ (5% ≤ ++ <25%)” and the “AX: anxiolytic” value was “++ (5% ≤ ++ <25%)”. For the same compound, the “CE: cognitive enhancer” value was “++ (5% ≤ ++ <25%)”, the “DP: anti-depressant” value was “+ (LOQ ≤ + <5%)” and the “MS: mood stabilizer” value was “+ (LOQ ≤ + <5%)”. For the same compound, the “PS: anti-psychotic” value was “++ (5% ≤ ++ <25%)”, the “SD: sedative hypnotic” value was “++ (5% ≤ ++ <25%)” and the “UN: uncharacterized CNS activity” value was “++++ (50% ≤ ++++)”. In the case of `CC[C@@H]1OCc2ccccc2[C@@H]1N.Cl` (single isomer, unassigned) [Example 198], the “AD: ADHD” value is reported as “+ (LOQ ≤ + <5%)”, the “AG: analgesic” value is reported as “+ (LOQ ≤ + <5%)” and the “AX: anxiolytic” value is reported as “++ (5% ≤ ++ <25%)”. The “CE: cognitive enhancer” value was “++ (5% ≤ ++ <25%)”, the “DP: anti-depressant” value was “++ (5% ≤ ++ <25%)” and the “MS: mood stabilizer” value was “+ (LOQ ≤ + <5%)”. For the same compound, the “PS: anti-psychotic” value was “+++ (25% ≤ +++ <50%)”, the “SD: sedative hypnotic” value was “+ (LOQ ≤ + <5%)” and the “UN: uncharacterized CNS activity” value was “+++ (25% ≤ +++ <50%)”. With `CC[C@H]1OCc2ccccc2[C@@H]1N.Cl` (single isomer, unassigned) [Example 199] the “AD: ADHD” value was “+ (LOQ ≤ + <5%)”, the “AG: analgesic” value was “++ (5% ≤ ++ <25%)” and the “AX: anxiolytic” value was “++++ (50% ≤ ++++)”. The “CE: cognitive enhancer” value was “++ (5% ≤ ++ <25%)”, the “DP: anti-depressant” value was “+ (LOQ ≤ + <5%)” and the “MS: mood stabilizer” value was “+ (LOQ ≤ + <5%)”. For the same compound, the “PS: anti-psychotic” value was “++ (5% ≤ ++ <25%)”, the “SD: sedative hypnotic” value was “++ (5% ≤ ++ <25%)” and the “UN: uncharacterized CNS activity” value was “++++ (50% ≤ ++++)”. With `CC[C@H]1OCc2cccc(Cl)c2[C@@H]1N.Cl` (single isomer, unassigned) [Example 209] the “AD: ADHD” value was “+ (LOQ ≤ + <5%)”, the “AG: analgesic” value was “+++ (25% ≤ +++ <50%)” and the “AX: anxiolytic” value was “++ (5% ≤ ++ <25%)”. For the same compound, the “CE: cognitive enhancer” value was “++ (5% ≤ ++ <25%)”, the “DP: anti-depressant” value was “++ (5% ≤ ++ <25%)” and the “MS: mood stabilizer” value was “+ (LOQ ≤ + <5%)”. The “PS: anti-psychotic” value was “++ (5% ≤ ++ <25%)”, the “SD: sedative hypnotic” value was “++ (5% ≤ ++ <25%)” and the “UN: uncharacterized CNS activity” value was “+++ (25% ≤ +++ <50%)”.
